The inhibition is the drop in the measured response relative to a control, in per cent.

The source of these data is patent publication US8088758B2, “17β-hydroxysteroid dehydrogenase type I inhibitors” (Abbott Products GmbH, priority 2003, dated 2012).

The assay has as its target T1, recombinant human 17β-hydroxysteroid dehydrogenase type 1 (Homo sapiens, UniProt P14061).
T1 construct: made in house; host or cells: Sf9 insect cells (baculovirus, Bac to Bac Expression System)
T1 sequence (P14061 1-328): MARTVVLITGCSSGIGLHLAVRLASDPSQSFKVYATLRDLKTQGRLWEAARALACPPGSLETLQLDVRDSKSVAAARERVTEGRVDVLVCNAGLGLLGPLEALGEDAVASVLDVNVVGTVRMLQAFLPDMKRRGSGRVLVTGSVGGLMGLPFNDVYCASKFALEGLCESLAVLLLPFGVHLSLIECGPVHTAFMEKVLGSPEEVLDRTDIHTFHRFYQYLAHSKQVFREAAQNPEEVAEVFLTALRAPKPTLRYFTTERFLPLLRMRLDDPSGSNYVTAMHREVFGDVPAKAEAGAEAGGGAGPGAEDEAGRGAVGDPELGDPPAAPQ
As to the kind of experiment: Inhibition of recombinant human 17β-hydroxysteroid dehydrogenase type 1 (conversion of 3H-estrone to estradiol, HPLC). Type of assay: biochemical. Conditions: 30 nM 3H-estrone, 1 mM NADPH, 30 min at RT; for inhibition at 0.1 µM: inhibitor 100 nM, read-out: Inhibition of rec. 17β-HSD1 (% inhibition), 100 nM; for inhibition at 1 µM: inhibitor 1 μm, read-out: Inhibition of rec. 17β-HSD1 (% inhibition), 1 μm. On the procedure: 1. Inhibition of the 17β-hydroxysteroid Dehydrogenase Type 1 Enzyme
17β-HSD1 Purification: Recombinant baculovirus was generated by the “Bac to Bac Expression System” (Invitrogen). Recombinant bacmid was transfected to Sf9 insect cells using “Cellfectin Reagent” (Invitrogen). 60 h later cells were harvested; the microsomal fraction was isolated as described by Puranen et al. 1994. Aliquots were stored frozen until determination of enzymatic activity.
Assay—Inhibition of Recombinant Human 17β-hydroxysteroid Dehydrogenase Type 1:
Recombinant protein (0.1 μg/ml) was incubated in 20 mM KH2PO4 pH 7.4 with 30 nM 3H-estrone and 1 mM NADPH for 30 min at RT, in the presence of potential inhibitors at concentrations of 1 μM or 0.1 μM. Inhibitor stock solutions were prepared in DMSO. Final concentration of DMSO was adjusted to 1% in all samples. The enzyme reaction was stopped by addition of 10% trichloroacetic acid (final concentration). Samples were centrifuged in a microtiter plate at 4000 rpm for 10 min. Supernatants were applied to reverse phase HPLC on a Waters Symmetry C18 column, equipped with a Waters Sentry Guard column. Isocratic HPLC runs were performed at RT at a flow rate of 1 ml/min of acetonitrile:water 48:52 as running solvent. Radioactivity was monitored in the eluate by a Packard Flow Scintillation Analyzer. Total radioactivity for estrone and estradiol were determined in each sample and percent conversion of estrone to estradiol was calculated according to the following formula:
Percent inhibition was calculated as follows: % inhibition=100−% conversion

Regarding `C[C@]12CC[C@@H]3c4ccc(O)cc4CC[C@H]3[C@@H]1[C@@H](CNS(=O)(=O)c1ccc(F)cc1)CC2=O` [Example 665], the inhibition at 0.1 µM is 54.6% and the inhibition at 1 µM was found to be 91.2%.
In the same order, the values of `CN(Cc1ccccc1)C(=O)CCC[C@@H]1CC(=O)[C@@]2(C)CC[C@@H]3c4ccc(O)cc4CC[C@H]3[C@H]12` [Example 38, N-Benzyl-4-(3-hydroxy-17-oxo-estra-1,3,5(10)-trien-15β-yl)-N-methyl-butyramide] are 60.5% and 89.5%.
In the same order, the values of `COc1ccc2c(c1)CC[C@H]1[C@@H]3[C@H](CCCNC(=O)Nc4cccc5ccccc45)CC(=O)[C@@]3(C)CC[C@H]21` [Example 451] are 32.3% and 74.6%.
The matching figures for `COc1ccc2c(c1)CC[C@H]1[C@@H]3[C@H](CCCCC(=O)NCc4cccc(F)c4)CC(=O)[C@@]3(C)CC[C@H]21` [Example 342]: 40.4% and 89.2%.
In the case of `COc1ccc2c(c1)CC[C@H]1[C@@H]3[C@H](CCCCNC(=O)NCc4ccccc4)CC(=O)[C@@]3(C)CC[C@H]21` [Example 477], the inhibition at 0.1 µM turned out to be 31.7% and the inhibition at 1 µM was found to be 79.5%.
The matching figures for `C[C@]12CC[C@@H]3c4ccc(O)cc4CC[C@H]3[C@@H]1[C@@H](CNS(=O)(=O)c1ccc3ccccc3c1)CC2=O` [Example 661]: 40.1% and 82%.
The matching figures for `COc1ccc2c(c1)CC[C@H]1[C@@H]3[C@H](CCCCCC(=O)NCc4ccc5c(c4)OCO5)CC(=O)[C@@]3(C)CC[C@H]21` [Example 353]: 46.3% and 89.5%.
The matching figures for `CN(C[C@H]1CC(=O)[C@@]2(C)CC[C@@H]3c4ccc(O)cc4CC[C@H]3[C@H]12)S(=O)(=O)c1cccc(Cl)c1` [Example 693]: 25.8% and 80.1%.
Consider `COc1ccc2c(c1)CC[C@H]1[C@@H]3[C@H](CCC(=O)NCc4cccc(F)c4)CC(=O)[C@@]3(C)CC[C@H]21` [Example 322], for which the inhibition at 0.1 µM was determined as 45.7% and the inhibition at 1 µM worked out at 66.3%.
As for `COc1ccc2c(c1)CC[C@H]1[C@@H]3[C@H](CCCCC(=O)NCc4ccccc4OC)CC(=O)[C@@]3(C)CC[C@H]21` [Example 341], the inhibition at 0.1 µM turned out to be 38.1% and the inhibition at 1 µM was found to be 88%.
In the same order, the values of `C[C@]12CC[C@@H]3c4ccc(O)cc4CC[C@H]3[C@@H]1[C@@H](CNS(=O)(=O)c1cc(S(=O)(=O)c3ccccc3)cs1)CC2=O` [Example 679] are 26.5% and 74.6%.
Regarding `COc1ccc2c(c1)CC[C@H]1[C@@H]3[C@H](CCC(=O)NCCc4ccc(O)cc4)CC(=O)[C@@]3(C)CC[C@H]21` [Example 324], the inhibition at 0.1 µM was found to be 57.9% and the inhibition at 1 µM turned out to be 91.5%.
The matching figures for `C[C@]12CC[C@@H]3c4ccc(O)cc4CC[C@H]3[C@@H]1[C@@H](CNS(=O)(=O)c1cccs1)CC2=O` [Example 662]: 76.9% and 94.8%.
Consider `COc1ccc2c(c1)CC[C@H]1[C@@H]3[C@H](CCCCC(=O)NCCc4cccs4)CC(=O)[C@@]3(C)CC[C@H]21` [Example 346], for which the inhibition at 0.1 µM came out at 58.2% and the inhibition at 1 µM is 91.7%.
The matching figures for `COc1ccc2c(c1)CC[C@H]1[C@@H]3[C@H](CCCCCC(=O)NCc4cccc(F)c4)CC(=O)[C@@]3(C)CC[C@H]21` [Example 361]: 35.8% and 84.2%.
The matching figures for `COc1ccc2c(c1)CC[C@H]1[C@@H]3[C@H](CCCCC(=O)NCc4ccccc4)CC(=O)[C@@]3(C)CC[C@H]21` [Example 340]: 51.4% and 91.9%.
In the same order, the values of `C[C@]12CC[C@@H]3c4ccc(O)cc4CC[C@H]3[C@@H]1[C@H](CCCC(=O)N1CCOCC1)CC2=O` [Example 1, 3-Hydroxy-15β-(4-morpholin-4-yl-4-oxo-butyl)-estra-1,3,5(10)-trien-17-one] are 49.9% and 80.2%.
With `COc1ccc2c(c1)CC[C@H]1[C@@H]3[C@H](CCCCC(=O)NCc4ccc5c(c4)OCO5)CC(=O)[C@@]3(C)CC[C@H]21` [Example 335], the inhibition at 0.1 µM is 59% and the inhibition at 1 µM worked out at 90.5%.
In the same order, the values of `C[C@]12CC[C@@H]3c4ccc(O)cc4CC[C@H]3[C@@H]1[C@H](CCCC(=O)NCc1ccccc1)CC2=O` [Example 3A, N-Benzyl-4-(3-hydroxy-17-oxo-estra-1,3,5(10)-trien-15β-yl)-butyramide] are 51.6% and 84.1%.
The matching figures for `COc1ccc2c(c1)CC[C@H]1[C@@H]3[C@H](CCCOC(=O)Nc4ccc5c(c4)OCO5)CC(=O)[C@@]3(C)CC[C@H]21` [Example 748]: 48.7% and 90.6%.
On to `COc1ccc2c(c1)CCC1C2CC[C@]2(C)C(=O)C[C@@H](CCCC(=O)NCCc3cccs3)C12` (some centres unmarked) [Example 29], for which the inhibition at 0.1 µM turned out to be 29.6% and the inhibition at 1 µM is 69.3%.
In the same order, the values of `CCCCNC(=O)CCCC[C@@H]1CC(=O)[C@@]2(C)CC[C@@H]3c4ccc(OC)cc4CC[C@H]3[C@H]12` [Example 345] are 33% and 85.6%.
The matching figures for `COc1ccc2c(c1)CC[C@H]1[C@@H]3[C@H](CCC(=O)N(C)C4CCCCC4)CC(=O)[C@@]3(C)CC[C@H]21` [Example 313]: 62.6% and 93%.
The matching figures for `CCOC(=O)CNNC(=O)CCCCC[C@@H]1CC(=O)[C@@]2(C)CC[C@@H]3c4ccc(OC)cc4CC[C@H]3[C@H]12` [Example 414]: 44.9% and 49.9%.
On to `COc1ccc2c(c1)CC[C@H]1[C@@H]3[C@H](CCCCC(=O)NCc4cccnc4)CC(=O)[C@@]3(C)CC[C@H]21` [Example 338], for which the inhibition at 0.1 µM worked out at 28.7% and the inhibition at 1 µM amounted to 84.6%.
